Literature values in patent US10751019B2, “Determining a brain condition using early time frame PET image analysis” (ADM DIAGNOSTICS, LLC, priority 2015, dated 2020).

Settings: PET tracer in brain, time after tracer injection; varies with tracer, region of accumulation and target load

time to reach equilibrium | SMILES
about 45 minutes | [11CH3]Nc1ccc(-c2nc3ccc(O)cc3s2)cc1 [11C-PiB]
40 to 45 min | CNc1ccc(/C=C/c2ccc(OCCOCCOCCF)nc2)cc1 [florbetapir]
about 80 minutes | CNc1ccc(-c2nc3ccc(O)cc3s2)cc1F [flutemetamol]
